Data reported in US9938269B2, “Inhibitor compounds of phosphodiesterase type 10A” (ABBVIE INC., priority 2011, dated 2018).
Counter-ions that a name gives are not always drawn.

How the values were obtained:
PDE10A (human) = biological target: T1, PDE10A (human) (Homo sapiens, UniProt Q9Y233); experiment: Measurement of PDE activity (HTRF cAMP kit), human PDE10A; assay type: biochemical; conditions: PDE enzymatic reaction, substrate 20 nM for PDE10, 60 minutes at 29 C
T1 construct: purchased BPS Bioscience
T1 sequence (Q9Y233 whole entry): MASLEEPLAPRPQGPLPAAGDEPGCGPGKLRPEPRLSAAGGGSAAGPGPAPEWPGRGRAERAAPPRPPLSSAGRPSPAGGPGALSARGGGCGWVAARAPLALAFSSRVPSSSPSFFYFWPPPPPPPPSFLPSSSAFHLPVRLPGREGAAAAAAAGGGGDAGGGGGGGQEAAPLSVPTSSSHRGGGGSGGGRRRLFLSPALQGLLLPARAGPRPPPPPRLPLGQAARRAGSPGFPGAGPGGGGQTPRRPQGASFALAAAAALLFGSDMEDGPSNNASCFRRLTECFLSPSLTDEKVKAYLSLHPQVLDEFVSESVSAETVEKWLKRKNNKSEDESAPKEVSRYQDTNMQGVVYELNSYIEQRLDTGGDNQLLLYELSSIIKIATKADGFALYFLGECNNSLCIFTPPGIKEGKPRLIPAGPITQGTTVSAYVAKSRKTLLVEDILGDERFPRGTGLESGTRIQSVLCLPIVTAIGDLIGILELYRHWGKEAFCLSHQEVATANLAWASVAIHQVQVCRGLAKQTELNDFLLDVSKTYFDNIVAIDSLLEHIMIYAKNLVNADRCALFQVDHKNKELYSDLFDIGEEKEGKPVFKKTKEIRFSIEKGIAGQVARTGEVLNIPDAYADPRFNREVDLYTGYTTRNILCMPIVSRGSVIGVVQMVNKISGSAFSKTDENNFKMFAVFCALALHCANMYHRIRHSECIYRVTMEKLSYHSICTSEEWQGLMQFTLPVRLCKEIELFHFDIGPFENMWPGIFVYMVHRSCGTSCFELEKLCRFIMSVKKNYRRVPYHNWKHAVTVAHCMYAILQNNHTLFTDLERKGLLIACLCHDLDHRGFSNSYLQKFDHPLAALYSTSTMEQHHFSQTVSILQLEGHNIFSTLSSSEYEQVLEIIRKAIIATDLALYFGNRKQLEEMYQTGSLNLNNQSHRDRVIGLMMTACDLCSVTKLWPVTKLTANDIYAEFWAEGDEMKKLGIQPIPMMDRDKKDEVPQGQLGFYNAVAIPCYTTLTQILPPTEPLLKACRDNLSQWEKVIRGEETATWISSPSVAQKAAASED
Procedure, shortened: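 HTRF detection of cAMP left after hydrolysis, expressed as percent of uninhibited control to derive IC50. Reaction: serially diluted inhibitor mixed with recombinant enzyme, started with 20 nM cAMP, 60 min at 29 °C in Tris-HCl pH 7.5 buffer containing MgCl2 and BSA.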

[1] = Determination of the microsomal half-life, rat liver microsomes; conditions: rat, liver microsomes, pH 7.4
[2] = Determination of the microsomal half-life, human liver microsomes; conditions: human, liver microsomes, pH 7.4

| Structure (SMILES) | IC50 (PDE10A (human)) [nM] | microsomal CLint at 0.5 μM [1] [µL/min/mg] | microsomal CLint at 0.5 μM [2] [µL/min/mg] |
| --- | --- | --- | --- |
| O=C1c2c(-c3ccnnc3)ccnc2CN1CCc1ccc2ccccc2n1 [Example 338, 4-Pyridazin-4-yl-6-(2-quinolin-2-yl-ethyl)-6,7-dihydro-pyrrolo[3,4-b]pyridin-5-one] | < 100 | < 100 | < 100 |
| CCOc1ncc(-c2cccc3c2CN(CCc2ccc4ccccc4n2)C3=O)cn1 [Example 343, 4-(2-Ethoxy-pyrimidin-5-yl)-2-(2-quinolin-2-yl-ethyl)-2,3-dihydro-isoindol-1-one] | 200 to 500 | > 220 | 100 to 220 |
| O=C1c2cccc(-c3ccnnc3)c2CN1CCc1ccc2ccccc2n1 [Example 353, 4-Pyridazin-4-yl-2-(2-quinolin-2-yl-ethyl)-2,3-dihydro-isoindol-1-one] | 100 to 200 | 100 to 220 | < 100 |
| CN(C)C1CCN(c2ccnc3c2C(=O)N(CCc2ccc4ccccc4n2)C3)CC1 [Example 363, 4-(4-Dimethylamino-piperidin-1-yl)-6-(2-quinolin-2-yl-ethyl)-6,7-dihydro-pyrrolo[3,4-b]pyridin-5-one hydrochloride] | 200 to 500 | < 100 | < 100 |
| Cn1c(CCN2Cc3nccc(-c4cncnc4)c3C2=O)nc2ccccc21 [Example 364, 6-[2-(1-Methyl-1H-benzoimidazol-2-yl)-ethyl]-4-pyrimidin-5-yl-6,7-dihydro-pyrrolo[3,4-b]pyridin-5-one] | < 100 | < 100 | < 100 |
| O=C1c2c(-c3cn[nH]c3)ccnc2CN1CCc1cn2ccccc2n1 [Example 365, 6-(2-Imidazo[1,2-a]pyridin-2-yl-ethyl)-4-(1H-pyrazol-4-yl)-6,7-dihydro-pyrrolo[3,4-b]pyridin-5-one] | < 100 | 100 to 220 | < 100 |
| O=C(O)C1CCN(c2ccnc3c2C(=O)N(CCc2ccc4ccccc4n2)C3)CC1 [Example 366, 1-[5-Oxo-6-(2-quinolin-2-yl-ethyl)-6,7-dihydro-5H-pyrrolo[3,4-b]pyridin-4-yl]-piperidine-4-carboxylic acid] | 100 to 200 | < 100 | < 100 |
| Cn1c(CCN2Cc3nccc(-c4ccncc4)c3C2=O)nc2ccccc21 [Example 367, 6-[2-(1-Methyl-1H-benzoimidazol-2-yl)-ethyl]-4-pyridin-4-yl-6,7-dihydro-pyrrolo[3,4-b]pyridin-5-one] | < 100 | < 100 | < 100 |
| Cn1c(CCN2Cc3nccc(-c4cccnc4)c3C2=O)nc2ccccc21 [Example 368, 6-[2-(1-Methyl-1H-benzoimidazol-2-yl)-ethyl]-4-pyridin-3-yl-6,7-dihydro-pyrrolo[3,4-b]pyridin-5-one] | < 100 | < 100 | < 100 |
| O=C1c2c(-c3ccncc3)ccnc2CN1CCc1cn2ccccc2n1 [Example 369, 6-(2-Imidazo[1,2-a]pyridin-2-yl-ethyl)-4-pyridin-4-yl-6,7-dihydro-pyrrolo[3,4-b]pyridin-5-one] | < 100 | < 100 | < 100 |
| COc1ccc(-c2ccncc2)c2c1CN(CCc1nc3ccccc3n1C)C2=O [Example 370, 4-Methoxy-2-[2-(1-methyl-1H-benzoimidazol-2-yl)-ethyl]-7-pyridin-4-yl-2,3-dihydro-isoindol-1-one] | < 100 | < 100 | > 220 |
| COc1ccc(N2CCOCC2)c2c1CN(CCc1nc3ccccc3n1C)C2=O [Example 371, 4-Methoxy-2-[2-(1-methyl-1H-benzoimidazol-2-yl)-ethyl]-7-morpholin-4-yl-2,3-dihydro-isoindol-1-one] | < 100 | < 100 | > 220 |
| COc1ccc(-c2cn[nH]c2)c2c1CN(CCc1cn3ccccc3n1)C2=O [Example 372, 2-(2-Imidazo[1,2-a]pyridin-2-yl-ethyl)-4-methoxy-7-(1H-pyrazol-4-yl)-2,3-dihydro-isoindol-1-one] | < 100 | < 100 | < 100 |
| COc1ccc(-c2ccnn2C)c2c1CN(CCc1cn3ccccc3n1)C2=O [Example 373, 2-(2-Imidazo[1,2-a]pyridin-2-yl-ethyl)-4-methoxy-7-(2-methyl-2H-pyrazol-3-yl)-2,3-dihydro-isoindol-1-one] | < 100 | < 100 | < 100 |
| COc1ccc(-c2ccncc2)c2c1CN(CCc1cn3ccccc3n1)C2=O [Example 374, 2-(2-Imidazo[1,2-a]pyridin-2-yl-ethyl)-4-methoxy-7-pyridin-4-yl-2,3-dihydro-isoindol-1-one] | < 100 | < 100 | < 100 |
| O=C1c2c(-c3ccncc3)ccnc2CN1CCc1nc2ccccc2s1 [Example 375, 6-(2-Benzothiazol-2-yl-ethyl)-4-pyridin-4-yl-6,7-dihydro-pyrrolo[3,4-b]pyridin-5-one] | < 100 | < 100 | < 100 |
| O=C1c2c(NC3COC3)ccnc2CN1CCc1nc2ccccc2s1 [Example 376, 6-(2-Benzothiazol-2-yl-ethyl)-4-(oxetan-3-ylamino)-6,7-dihydro-pyrrolo[3,4-b]pyridin-5-one] | < 100 | < 100 | < 100 |
| O=C1c2c(N3CCOCC3)ccnc2CN1CCc1nc2ccccc2s1 [Example 377, 6-(2-Benzothiazol-2-yl-ethyl)-4-morpholin-4-yl-6,7-dihydro-pyrrolo[3,4-b]pyridin-5-one] | < 100 | < 100 | < 100 |
| O=C1c2c(-c3cccnc3)ccc(F)c2CN1CCc1cn2ccccc2n1 [Example 378, 4-Fluoro-2-(2-imidazo[1,2-a]pyridin-2-yl-ethyl)-7-pyridin-3-yl-2,3-dihydro-isoindol-1-one] | < 100 | < 100 | 100 to 220 |
| O=C1c2c(-c3ccc(F)cc3)ccc(F)c2CN1CCc1cn2ccccc2n1 [Example 379, 4-Fluoro-7-(4-fluoro-phenyl)-2-(2-imidazol[1,2-a]pyridin-2-yl-ethyl)-2,3-dihydro-isoindol-1-one] | 100 to 200 | > 220 | 100 to 220 |
| COc1ccc(-c2ccc(F)c3c2C(=O)N(CCc2cn4ccccc4n2)C3)cc1 [Example 380, 4-Fluoro-2-(2-imidazo[1,2-a]pyridin-2-yl-ethyl)-7-(4-methoxy-phenyl)-2,3-dihydro-isoindol-1-one] | 200 to 500 | > 220 | 100 to 220 |
| O=C1c2c(-c3cncnc3)ccc(F)c2CN1CCc1cn2ccccc2n1 [Example 381, 4-Fluoro-2-(2-imidazo[1,2-a]pyridin-2-yl-ethyl)-7-pyrimidin-5-yl-2,3-dihydro-isoindol-1-one] | < 100 | < 100 | 100 to 220 |
| Cn1nccc1-c1ccc(F)c2c1C(=O)N(CCc1cn3ccccc3n1)C2 [Example 382, 4-Fluoro-2-(2-imidazo[1,2-a]pyridin-2-yl-ethyl)-7-(2-methyl-2H-pyrazol-3-yl)-2,3-dihydro-isoindol-1-one] | < 100 | < 100 | < 100 |
| O=C1c2c(-c3cn[nH]c3)ccc(F)c2CN1CCc1cn2ccccc2n1 [Example 383, 4-Fluoro-2-(2-imidazo[1,2-a]pyridin-2-yl-ethyl)-7-(1H-pyrazol-4-yl)-2,3-dihydro-isoindol-1-one] | < 100 | < 100 | < 100 |
| O=C1c2c(cccc2N2CCOCC2)CN1CCc1ccc2sccc2n1 [Example 556, 7-Morpholino-2-(2-(thieno[3,2-b]pyridin-5-yl)ethyl)isoindolin-1-one] | 100 to 200 | 100 to 220 | 100 to 220 |
| O=C1c2c(cccc2-c2cncnc2)CN1CCc1ccc2sccc2n1 [Example 559, 7-Pyrimidin-5-yl-2-(2-thieno[3,2-b]pyridin-5-ylethyl)isoindolin-1-one] | < 100 | 100 to 220 | > 220 |
| O=C1c2c(N3CCC(CF)C3)ccnc2CN1CCc1cn2ccccc2n1 (stereo not drawn) [compound 384, 4-[3-(Fluoromethyl)pyrrolidin-1-yl]-6-(2-imidazo[1,2-a]pyridin-2-ylethyl)-7H-pyrrolo[3,4-b]pyridin-5-one] | < 100 | 100 to 220 | < 100 |
| O=C1c2c(N3CCC(C(F)F)C3)ccnc2CN1CCc1nc2ccccc2s1 (stereo not drawn) [compound 385, 6-[2-(1,3-Benzothiazol-2-yl)ethyl]-4-[3-(difluoromethyl)pyrrolidin-1-yl]-7H-pyrrolo[3,4-b]pyridin-5-one] | < 100 | 100 to 220 | 100 to 220 |
| O=C1c2c(N3CCC(C(F)F)C3)ccnc2CN1CCc1cn2ccccc2n1 (stereo not drawn) [compound 386, 4-[3-(Difluoromethyl)pyrrolidin-1-yl]-6-(2-imidazo[1,2-a]pyridin-2-ylethyl)-7H-pyrrolo[3,4-b]pyridin-5-one] | < 100 | 100 to 220 | < 100 |
| O=C1c2c(N3CCC(CF)C3)ccnc2CN1CCc1nc2ccccc2s1 (stereo not drawn) [compound 387, 6-[2-(1,3-Benzothiazol-2-yl)ethyl]-4-[3-(fluoromethyl)pyrrolidin-1-yl]-7H-pyrrolo[3,4-b]pyridin-5-one] | < 100 | > 220 | 100 to 220 |
